Molecular target: T1, ITK (Homo sapiens, UniProt Q08881)
T1 sequence (Q08881 1-620): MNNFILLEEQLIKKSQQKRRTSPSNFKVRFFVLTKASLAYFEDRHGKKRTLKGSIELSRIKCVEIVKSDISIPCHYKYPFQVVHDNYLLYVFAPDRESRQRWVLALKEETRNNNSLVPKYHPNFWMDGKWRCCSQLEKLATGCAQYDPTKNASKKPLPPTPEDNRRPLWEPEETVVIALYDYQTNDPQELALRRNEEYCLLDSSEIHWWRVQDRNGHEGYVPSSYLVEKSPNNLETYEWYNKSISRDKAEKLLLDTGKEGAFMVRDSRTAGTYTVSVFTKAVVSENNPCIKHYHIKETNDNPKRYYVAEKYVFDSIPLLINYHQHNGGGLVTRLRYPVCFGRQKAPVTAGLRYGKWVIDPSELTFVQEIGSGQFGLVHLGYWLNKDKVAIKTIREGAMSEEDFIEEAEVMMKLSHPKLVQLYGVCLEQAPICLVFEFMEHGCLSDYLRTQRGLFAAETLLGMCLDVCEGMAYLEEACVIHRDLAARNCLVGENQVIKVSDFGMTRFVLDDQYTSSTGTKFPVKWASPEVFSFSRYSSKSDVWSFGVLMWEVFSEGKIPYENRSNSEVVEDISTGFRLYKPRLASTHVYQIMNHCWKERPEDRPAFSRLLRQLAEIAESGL
Test: ITK degradation HiBiT assay
Assay type: cell-based
Design: expressed in transfected cells; host or cells: Molt4 (ATCC CRL-1552), monoclonal clone 1C10, engineered to carry the HiBiT tag
Settings: 4 hrs; for DC50: C-terminal HiBiT-tagged Molt4 cells; for Dmax: MOLT-4, C-terminal HiBiT-tagged Molt4 cells
Procedure, shortened: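 C-terminal HiBiT-tagged Molt4 cells (clone 1C10) treated 4 h at 32° C with an 11-point, 5-fold compound dilution series (0.5% DMSO). HiBiT lytic detection with LgBiT then luminescence read; % ITK remaining versus concentration fit by four-parameter variable-slope model to give DC50 and Dmax.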

Cn1c(=O)n(C2CCC(=O)NC2=O)c2cccc(N3CCC(CN4CC(n5cc(NC(=O)c6n[nH]c7c6C[C@@H]6C(F)(F)[C@]6(C)C7)cn5)C4)CC3)c21 (stereo partly drawn) [Compound 57, (4aS,5aR)-N-(1-(1-((1-(1-(2,6-dioxopiperidin-3-yl)-3-methyl-2-oxo-2,3-dihydro-1H-benzo[d]imidazol-4-yl)piperidin-4-yl)methyl)azetidin-3-yl)-1H-pyrazol-4-yl)-5,5-difluoro-5a-methyl-1,4,4a,5,5a,6-hexahydrocyclopropa[f]indazole-3-carboxamide]
DC50: < 0.01 nM
Dmax: 90%

COC[C@@]1(C)CCc2c(-c3cc4ccc(C(=O)N5CCN(CC6CCN(c7ccc(C8CCC(=O)NC8=O)cc7)CC6)CC5)cc4[nH]3)n[nH]c2C1 (mixture of isomers) [Compound 224, (3RS)-3-(4-{4-[(4-{2-[(6S)-6-(methoxymethyl)-6-methyl-1,4,5,7-tetrahydroindazol-3-yl]-1H-indole-6-carbonyl}piperazin-1-yl)methyl]piperidin-1-yl}phenyl)piperidine-2,6-dione]
DC50: 8.5 nM
Dmax: 84%

C[C@@]12Cc3[nH]nc(C(=O)Nc4cnn(C5CCN(C(=O)C6CCN(c7ccc(C8CCC(=O)NC8=O)cn7)C6)CC5)c4)c3C[C@@H]1C2(F)F (mixture of isomers) [Compound 167]
Dmax: 86%

C[C@@]12Cc3[nH]nc(-c4cc5cc(F)c(C(=O)N6CCN(C[C@@H]7CCN(c8ccc(C9CCC(=O)NC9=O)cc8)C7)CC6)cc5[nH]4)c3C[C@@H]1C2(F)F (some centres unmarked) [Compound 146]
Dmax: 73%

CC1(C)CCc2c(-c3cc4ccc(C(=O)N5CCC(CN6CCCN(c7ccc(C8CCC(=O)NC8=O)cn7)CC6)CC5)cc4[nH]3)n[nH]c2C1 (centres unmarked) [Compound 191]
Dmax: 78%

C[C@@]12Cc3[nH]nc(C(=O)Nc4cnn(C5CCN(CC6CCN(c7ccc(N8CCC(=O)NC8=O)cc7)CC6)CC5)c4)c3C[C@@H]1C2(F)F [Compound 207, (4aS,5aR)-N-(1-(1-((1-(4-(2,4-dioxotetrahydropyrimidin-1(2H)-yl)phenyl)piperidin-4-yl)methyl)piperidin-4-yl)-1H-pyrazol-4-yl)-5,5-difluoro-5a-methyl-1,4,4a,5,5a,6-hexahydrocyclopropa[f]indazole-3-carboxamide]
DC50: 0.49 nM
Dmax: 65%

C[C@@H](C(=O)N(C)c1cc2[nH]c(-c3n[nH]c4c3CCC(C)(C)C4)cc2cc1F)N1CCN(CC2CCN(c3ccc(C4CCC(=O)NC4=O)cn3)CC2)CC1 (some centres unmarked) [Compound 188]
Dmax: 85%

C[C@@]12Cc3[nH]nc(C(=O)Nc4ccc(C5CCN(CC6CCN(c7ccc(C8CCC(=O)NC8=O)cn7)CC6)CC5)nc4)c3C[C@@H]1C2(F)F (stereo partly drawn) [Compound 111, (4aS,5aR)-N-(6-(1-((1-(5-(2,6-dioxopiperidin-3-yl)pyridin-2-yl)piperidin-4-yl)methyl)piperidin-4-yl)pyridin-3-yl)-5,5-difluoro-5a-methyl-1,4,4a,5,5a,6-hexahydrocyclopropa[f]indazole-3-carboxamide]
DC50: 1.2 nM
Dmax: 90%

CC1(C)CCc2c(-c3cc4ccc(C(=O)N5CCN(CCC6CCN(c7cc(C8CCC(=O)NC8=O)ccn7)CC6)CC5)cc4[nH]3)n[nH]c2C1 (centres unmarked) [Compound 186]
Dmax: 87%

C[C@@]12Cc3[nH]nc(C(=O)Nc4cnn([C@H](c5ccccc5)C5CN(C(=O)N6CCC7(CCN(c8ccc9c(c8)C(=O)N(C8CCC(=O)NC8=O)C9=O)CC7)C6)C5)c4)c3C[C@@H]1C2(F)F (some centres unmarked) [Compound 53]
DC50: 3.3 nM
Dmax: 94%

C[C@H]1CN(C(=O)c2ccc3cc(-c4n[nH]c5c4CCC(C)(C)C5)[nH]c3c2)CCN1CC1CCN(c2ccc(C3CCC(=O)NC3=O)cn2)CC1 (stereo partly drawn) [Compound 131, 3-(6-(4-(((S)-4-(2-(6,6-dimethyl-4,5,6,7-tetrahydro-1H-indazol-3-yl)-1H-indole-6-carbonyl)-2-methylpiperazin-1-yl)methyl)piperidin-1-yl)pyridin-3-yl)piperidine-2,6-dione]
DC50: 0.5 nM
Dmax: 84%

C[C@@]12Cc3[nH]nc(C(=O)Nc4cnn(C5CCN(CC6CCN(c7ncc(C8CCC(=O)NC8=O)cn7)CC6)CC5)c4)c3C[C@@H]1C2(F)F (mixture of isomers) [Compound 115, (4aS,5aR)-N-(1-{1-[(1-{5-[(3RS)-2,6-dioxopiperidin-3-yl]pyrimidin-2-yl}piperidin-4-yl)methyl]piperidin-4-yl}-1H-pyrazol-4-yl)-5,5-difluoro-5a-methyl-1H,4H,4aH,5H,5aH,6H-cyclopropa[f]indazole-3-carboxamide]
DC50: 0.391 nM
Dmax: 84%

C[C@@]12Cc3[nH]nc(C(=O)Nc4cnn(C5CCN(CC6CCN(c7ccc(N8CCC(=O)NC8=O)cc7)C6)CC5)c4)c3C[C@@H]1C2(F)F (stereo partly drawn) [Compound 209, (4aS,5aR)-N-(1-(1-((1-(4-(2,4-dioxotetrahydropyrimidin-1(2H)-yl)phenyl)pyrrolidin-3-yl)methyl)piperidin-4-yl)-1H-pyrazol-4-yl)-5,5-difluoro-5a-methyl-1,4,4a,5,5a,6-hexahydrocyclopropa[f]indazole-3-carboxamide]
DC50: 0.345 nM
Dmax: 78%

C[C@@]12Cc3[nH]nc(C(=O)Nc4cnn(CC5CCN(CC6CCN(c7ccc(C8CCC(=O)NC8=O)cn7)CC6)CC5)c4)c3C[C@@H]1C2(F)F (mixture of isomers) [Compound 120, (4aS,5aR)-N-[1-({1-[(1-{5-[(3RS)-2,6-dioxopiperidin-3-yl]pyridin-2-yl}piperidin-4-yl)methyl]piperidin-4-yl}methyl)-1H-pyrazol-4-yl]-5,5-difluoro-5a-methyl-1H,4H,4aH,5H,5aH,6H-cyclopropa[f]indazole-3-carboxamide]
DC50: 0.049 nM
Dmax: 84%

C[C@@H]1CN(c2ccc(C3CCC(=O)NC3=O)cn2)CCN1CC1CCN(C(=O)c2ccc3cc(-c4n[nH]c5c4CCC(C)(C)C5)[nH]c3c2)CC1 (some centres unmarked) [Compound 189]
Dmax: 84%

C[C@@]12Cc3[nH]nc(C(=O)Nc4cnn(C5CCN(C(=O)[C@H]6CC[C@H](Cn7ncc8cc(C9CCC(=O)NC9=O)ccc87)CC6)CC5)c4)c3C[C@@H]1C2(F)F (mixture of isomers) [Compound 164]
Dmax: 86%

CC1(C)CCc2c(-c3cc4ccc(C(=O)N5CCC(CN6CCc7cc(C8CCC(=O)NC8=O)ccc7C6)CC5)cc4[nH]3)n[nH]c2C1 (centres unmarked) [Compound 193]
Dmax: 85%

C[C@@]12Cc3[nH]nc(-c4cc5cc(C(=O)N6CCN(C[C@@H]7CCN(c8ccc(C9CCC(=O)NC9=O)cc8)C7)CC6)ccc5[nH]4)c3C[C@@H]1C2(F)F (some centres unmarked) [Compound 143]
Dmax: 81%

C[C@@]12Cc3[nH]nc(C(=O)Nc4cnn([C@H]5CC[C@H](CN6CCN(c7ccc(C(=O)NC8CCC(=O)NC8=O)nc7)CC6)CC5)c4)c3C[C@@H]1C2(F)F (mixture of isomers) [Compound 127, N-[(3SR)-2,6-dioxopiperidin-3-yl]-5-(4-{[(1rs,4rs)-4-{4-[(4aS,5aR)-5,5-difluoro-5a-methyl-1H,4H,4aH,5H,5aH,6H-cyclopropa[f]indazole-3-amido]-1H-pyrazol-1-yl}cyclohexyl]methyl}piperazin-1-yl)pyridine-2-carboxamide]
DC50: 19.1 nM
Dmax: 69%

C[C@@]12Cc3[nH]nc(-c4cc5cc(F)c(C(=O)N6CCN(CC7CCN(c8ccc([C@H]9CCC(=O)NC9=O)cc8)CC7)CC6)cc5[nH]4)c3C[C@@H]1C2(F)F (single isomer, unassigned) [Compound 220]
DC50: 1.4 nM
Dmax: 89%

C[C@@]12Cc3[nH]nc(C(=O)Nc4cnn(C5CCN(C(=O)CC6CCN(c7ccc(C8CCC(=O)NC8=O)cn7)CC6)CC5)c4)c3C[C@@H]1C2(F)F (mixture of isomers) [Compound 166]
Dmax: 88%

C[C@@]12Cc3[nH]nc(-c4cc5ccc(N6CCC7(CCN(C(=O)C8CCN(c9ccc(C%10CCC(=O)NC%10=O)cn9)CC8)CC7)C6=O)cc5[nH]4)c3C[C@@H]1C2(F)F (stereo partly drawn) [Compound 24, 3-(6-(4-(2-(2-((4aS,5aR)-5,5-difluoro-5a-methyl-1,4,4a,5,5a,6-hexahydrocyclopropa[f]indazol-3-yl)-1H-indol-6-yl)-1-oxo-2,8-diazaspiro[4.5]decane-8-carbonyl)piperidin-1-yl)pyridin-3-yl)piperidine-2,6-dione]
DC50: 0.01 nM

C[C@@]12Cc3[nH]nc(C(=O)Nc4cnn(C5CCC(CN6CCN(c7ccc(C8CCC(=O)NC8=O)cc7)CC6)CC5)c4)c3C[C@@H]1C2(F)F (mixture of isomers) [Compound 126, (4aS,5aR)-5,5-difluoro-5a-methyl-N-{1-[(1rs,4rs)-4-[(4-{4-[(3RS)-2,6-dioxopiperidin-3-yl]phenyl}piperazin-1-yl)methyl]cyclohexyl]-1H-pyrazol-4-yl}-1H,4H,4aH,5H,5aH,6H-cyclopropa[f]indazole-3-carboxamide]
DC50: 1.4 nM
Dmax: 91%

— US20240279202A1 (NURIX THERAPEUTICS, INC., priority 2021, published 2024)
